Series [1] has as its system Plasmodium berghei. As to the kind of experiment: Antimalarial activity against Plasmodium berghei infected in mouse assessed as disease cure from parasite infection at 640 mg/kg, sc administered 72 hrs after infection. The class given is functional, organism-based. Further details: dose 640 mg/kg.
Series [2] concerns Enterococcus faecalis. As to the kind of experiment: Antibacterial activity against Streptococcus faecalis MGH-2 by gradient plate test. The series is classed as functional.
For series [3], the system named is Pseudomonas aeruginosa. As to the kind of experiment: Antibacterial activity against Pseudomonas aeruginosa 28 by gradient plate test. The class given is functional.
Series [4] has as its system Staphylococcus aureus. Nature of the series: Antibacterial activity against drug-resistant Staphylococcus aureus S18713 by gradient plate test. The series is classed as functional.
For series [5], the system named is Plasmodium berghei. Nature of the series: Antimalarial activity against Plasmodium berghei infected in mouse assessed as increase in mean survival days of host at 640 mg/kg, sc administered 72 hrs after infection relative to control. The series is classed as functional. The settings on record: route subcutaneous.
In series [6] the test system is Staphylococcus aureus. As to the kind of experiment: Antibacterial activity against Staphylococcus aureus UC-96 by gradient plate test. The series is classed as functional.
The subject of series [7] is Plasmodium berghei. As to the kind of experiment: Antimalarial activity against Plasmodium berghei infected in mouse assessed as increase in mean survival days of host at 160 mg/kg, sc administered 72 hrs after infection relative to control. The settings on record: route subcutaneous. The series is classed as functional.
Series [8] has as its system Plasmodium berghei. As to the kind of experiment: Antimalarial activity against Plasmodium berghei infected in mouse assessed as increase in mean survival days of host at 40 mg/kg, sc administered 72 hrs after infection relative to control. The series is classed as functional. The settings on record: route subcutaneous.
Series [9] deals with Escherichia coli. As to the kind of experiment: Antibacterial activity against Escherichia coli Vogel by gradient plate test. The class given is functional.
In series [10] the test system is Plasmodium berghei. Nature of the series: Antimalarial activity against Plasmodium berghei infected in mouse assessed as increase in mean survival days of host at 20 mg/kg, sc administered 72 hrs after infection relative to control. The class given is functional. The settings on record: route subcutaneous.
Series [11] concerns Shigella sonnei. As to the kind of experiment: Antibacterial activity against Shigella sonnei C-10 by gradient plate test. The class given is functional.
Series [12] relates to Mycobacterium tuberculosis. Nature of the series: Antibacterial activity against Mycobacterium tuberculosis H37Ra by gradient plate test. The class given is functional.
Series [13] has as its system Plasmodium berghei. Nature of the series: Antimalarial activity against Plasmodium berghei infected in mouse assessed as increase in mean survival days of host at 2.5 mg/kg, sc administered 72 hrs after infection relative to control. The settings on record: route subcutaneous. The class given is functional.
Series [14] deals with Plasmodium berghei. As to the kind of experiment: Antimalarial activity against Plasmodium berghei infected in mouse assessed as disease cure from parasite infection at 320 mg/kg, sc administered 72 hrs after infection. The series is classed as functional, organism-based. More on the design: dose 320 mg/kg.
The subject of series [15] is Plasmodium berghei. Nature of the series: Antimalarial activity against Plasmodium berghei infected in mouse assessed as disease cure from parasite infection at 160 mg/kg, sc administered 72 hrs after infection. The class given is functional, organism-based. Further details: dose 160 mg/kg.
Series [16] has as its system Plasmodium berghei. Nature of the series: Antimalarial activity against Plasmodium berghei infected in mouse assessed as increase in mean survival days of host at 10 mg/kg, sc administered 72 hrs after infection relative to control. The class given is functional. The settings on record: route subcutaneous.
For series [17], the system named is Plasmodium gallinaceum. Nature of the series: Antimalarial activity against sporozoite-induced Plasmodium gallinaceum infected in white leghorn chicken assessed as increase in mean survival days of host at 10 mg/kg, sc administered 72 hrs after infection relative to control. The series is classed as functional. Particulars: route subcutaneous.
The test system of series [18] is Plasmodium gallinaceum. As to the kind of experiment: Antimalarial activity against sporozoite-induced Plasmodium gallinaceum infected in white leghorn chicken assessed as disease cure from parasite infection at 40 mg/kg, sc administered 72 hrs after infection. The series is classed as functional, organism-based. More on the design: dose 40 mg/kg.
The test system of series [19] is Plasmodium gallinaceum. As to the kind of experiment: Antimalarial activity against sporozoite-induced Plasmodium gallinaceum infected in white leghorn chicken assessed as disease cure from parasite infection at 20 mg/kg, sc administered 72 hrs after infection. More on the design: dose 20 mg/kg. The series is classed as functional, organism-based.
In series [20] the test system is Plasmodium gallinaceum. As to the kind of experiment: Antimalarial activity against sporozoite-induced Plasmodium gallinaceum infected in white leghorn chicken assessed as disease cure from parasite infection at 160 mg/kg, sc administered 72 hrs after infection. The series is classed as functional, organism-based. Further details: dose 160 mg/kg.
In series [21] the test system is Plasmodium berghei. As to the kind of experiment: Antimalarial activity against Plasmodium berghei infected in mouse assessed as disease cure from parasite infection at 20 mg/kg, sc administered 72 hrs after infection. Further details: dose 20 mg/kg. The class given is functional, organism-based.
The test system of series [22] is Plasmodium berghei. As to the kind of experiment: Ratio of quinine hydrochloride SD90 to compound SD90 for trophozoite-induced Plasmodium berghei infected in mouse assessed as daily dose required to suppression of 90% parasite infection administered with diet for 6 days. The class given is functional.
Series [23] concerns Gallus gallus. Nature of the series: Toxicity in sporozoite-induced Plasmodium gallinaceum infected white leghorn chicken assessed as mortality at 320 mg/kg, sc administered 72 hrs after infection measured up to 6 days. The series is classed as organism-based. Further details: dose 320 mg/kg, route subcutaneous. The settings on record: in vivo.
Series [24] concerns Plasmodium berghei. Nature of the series: Antimalarial activity against Plasmodium berghei infected in mouse assessed as increase in mean survival days of host at 1.25 mg/kg, sc administered 72 hrs after infection relative to control. The series is classed as functional. Particulars: route subcutaneous.
The subject of series [25] is Plasmodium gallinaceum. As to the kind of experiment: Antimalarial activity against sporozoite-induced Plasmodium gallinaceum infected in white leghorn chicken assessed as disease cure from parasite infection at 10 mg/kg, sc administered 72 hrs after infection. Further details: dose 10 mg/kg. The class given is functional, organism-based.
For series [26], the system named is Plasmodium berghei. Nature of the series: Antimalarial activity against trophozoite-induced Plasmodium berghei infected in mouse assessed as daily dose required to suppression of 90% parasite infection administered with diet for 6 days. The class given is functional.
Series [27] relates to Plasmodium berghei. As to the kind of experiment: Antimalarial activity against Plasmodium berghei infected in mouse assessed as disease cure from parasite infection at 40 mg/kg, sc administered 72 hrs after infection. Further details: dose 40 mg/kg. The series is classed as functional, organism-based.
Series [28] deals with Plasmodium gallinaceum. As to the kind of experiment: Antimalarial activity against sporozoite-induced Plasmodium gallinaceum infected in white leghorn chicken assessed as disease cure from parasite infection at 320 mg/kg, sc administered 72 hrs after infection. The series is classed as functional, organism-based. Further details: dose 320 mg/kg.
In series [29] the test system is Plasmodium berghei. Nature of the series: Antimalarial activity against Plasmodium berghei infected in mouse assessed as increase in mean survival days of host at 5 mg/kg, sc administered 72 hrs after infection relative to control. The class given is functional. The settings on record: route subcutaneous.
Series [30] relates to Plasmodium gallinaceum. Nature of the series: Antimalarial activity against sporozoite-induced Plasmodium gallinaceum infected in white leghorn chicken assessed as increase in mean survival days of host at 20 mg/kg, sc administered 72 hrs after infection relative to control. The settings on record: route subcutaneous. The class given is functional.
The subject of series [31] is Plasmodium berghei. As to the kind of experiment: Antimalarial activity against Plasmodium berghei infected in mouse assessed as disease cure from parasite infection at 80 mg/kg, sc administered 72 hrs after infection. The series is classed as functional, organism-based. More on the design: dose 80 mg/kg.
For series [32], the system named is Plasmodium gallinaceum. As to the kind of experiment: Antimalarial activity against sporozoite-induced Plasmodium gallinaceum infected in white leghorn chicken assessed as disease cure from parasite infection at 80 mg/kg, sc administered 72 hrs after infection. More on the design: dose 80 mg/kg. The series is classed as functional, organism-based.
Series [33] has as its system Plasmodium berghei. As to the kind of experiment: Antimalarial activity against Plasmodium berghei infected in mouse assessed as increase in mean survival days of host at 80 mg/kg, sc administered 72 hrs after infection relative to control. The series is classed as functional. Particulars: route subcutaneous.
The test system of series [34] is Plasmodium berghei. As to the kind of experiment: Antimalarial activity against Plasmodium berghei infected in mouse assessed as increase in mean survival days of host at 320 mg/kg, sc administered 72 hrs after infection relative to control. The series is classed as functional. Particulars: route subcutaneous.

Structures are written as SMILES. Values after ≈ are worked out from the molar mass of the structure shown. Active and inactive are the calls of the source. The rule behind the calls is not given here. A value given as a limit tells only on which side of the number the result lay.

Take `Nc1nc(N)c2c(Cl)c(Sc3ccccc3)ccc2n1`: in series [1], the result was Active. Further, the MIC in [2] is below 0.25 µg/mL; in series [3] it was above 25 µg/mL; in [4] it was below 0.25 µg/mL; in [6] it was below 0.25 µg/mL; in series [9], below 0.25 µg/mL; in series [11] it was below 0.25 µg/mL. The compound also came in with an MIC in [12] of 10 µg/mL (≈ 33 µM). Besides, the MST in series [5] is 9.9 days; in series [7], 13.9 days; in [8] it was 4.7 days; in series [10], 3.9 days.

As to `COc1ccc(Sc2ccc3nc(N)nc(N)c3c2)cc1`, the MST came to 3.8 days in series [13]; 9.6 days in series [16]; 2.2 days in series [17]; 2.2 days in series [24]; 4.8 days in series [29]; 3.2 days in series [30]. For the same compound, the outcome in series [14], in series [1], in series [15], in series [18], in series [19] and in series [20] was Active. Besides, the result in series [21], in series [25], in series [27], in series [28], in [31] and in [32] was Active. Moreover, the MIC is below 0.25 µg/mL in series [2]; above 25 µg/mL in [3]; below 0.25 µg/mL in [4]; below 0.25 µg/mL in [6]; below 0.25 µg/mL in series [9]; 1.5 µg/mL (≈ 5.03 µM) in [11]. Further, the Ratio in [22] was 62. Further, the Activity result in series [23] is “Toxic”. Further, the SD90 in series [26] is listed as 1.2 mg/kg/day.

Regarding `Nc1nc(N)c2c(Cl)c(Sc3ccccc3Cl)ccc2n1`, the outcome in series [14], in series [1], in series [15], in series [27] and in series [31] was Active. Further, the MIC in [2] was below 0.25 µg/mL; in series [3], above 25 µg/mL; in [4] it was below 0.25 µg/mL; in [6], below 0.25 µg/mL; in [9], below 0.25 µg/mL; in series [11] it was 1 µg/mL (≈ 2.97 µM). The same compound displayed a minimal inhibitory concentration (MIC) in series [12] above 25 µg/mL. Also, the MST is 24.9 days in series [5]; 11.7 days in [33]; 24.4 days in series [34]; 14.9 days in series [7]; 10.2 days in series [8]; 4.7 days in [10].

What is called MIC is the least concentration at which growth counts as inhibited. Read a high MIC as a less susceptible organism.

Values taken from ChEMBL document CHEMBL3272271, “Folate antagonists. 13. 2,4-Diamino-6-](alpha,alpha,alpha-trifluoro-m-tolyl)thio]quinazoline and related 2,4-diamino-6-[(phenyl- and naphthyl)thio]quinazolines, a unique class of antimetabolites with extraordinary antimalarial and antibacterial effects” (J Med Chem, 1978).
